“Also recorded” adds a separate entry of the source. Read-outs that look alike come from different tables or passages of the source.
Legend:
[1] = molecular target: T1, human erythrocyte AChE (Homo sapiens, UniProt P22303); assay: biochemical
T1 construct: Erythrocytes were washed three times in isotonic saline, lysed; from tissue; host or cells: human erythrocytes from freshly collected blood, washed, lysed in 0.5% Triton-X

[2] = molecular target: T2, human plasma BChE (Homo sapiens, UniProt P06276); assay: biochemical
T2 construct: the plasma was separated and diluted; from tissue; host or cells: human plasma from freshly collected blood, diluted 1:125

[3] = system: AChE; assay type: in vivo, rat; settings: for inhibiting properties and persistence: dialkylcarbamate vs mono-substituted carbamate
[4] = system: cholinesterase (ChE); settings: cited from earlier work
[5] = system: neuromuscular AChR; settings: natural isomer; cited from earlier work
[6] = system: cholinesterase (ChE); assay type: biochemical
[7] = AChE vs BChE, in vitro, used as biological standards in this art area
[8] = AChE vs BChE, in vitro, biological standards

T1 sequence (P22303-2 with tags, fused parts or gaps limits assumed): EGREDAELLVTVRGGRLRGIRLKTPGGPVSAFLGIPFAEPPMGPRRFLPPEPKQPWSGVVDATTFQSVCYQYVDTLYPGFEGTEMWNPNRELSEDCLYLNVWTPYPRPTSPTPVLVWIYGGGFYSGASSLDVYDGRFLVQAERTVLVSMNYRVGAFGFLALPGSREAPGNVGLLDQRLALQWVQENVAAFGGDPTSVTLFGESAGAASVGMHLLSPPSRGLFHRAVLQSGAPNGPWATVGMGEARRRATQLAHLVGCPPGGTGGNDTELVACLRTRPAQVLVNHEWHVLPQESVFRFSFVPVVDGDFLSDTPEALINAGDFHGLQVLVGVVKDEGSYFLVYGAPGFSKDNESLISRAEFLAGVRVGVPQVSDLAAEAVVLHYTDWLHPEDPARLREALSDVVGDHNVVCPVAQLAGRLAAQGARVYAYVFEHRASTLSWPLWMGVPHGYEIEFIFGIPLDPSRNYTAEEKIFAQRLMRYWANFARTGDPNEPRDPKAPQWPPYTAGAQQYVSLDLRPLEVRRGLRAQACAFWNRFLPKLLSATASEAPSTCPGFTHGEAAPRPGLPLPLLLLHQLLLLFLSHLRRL
T2 sequence (P06276 29-602): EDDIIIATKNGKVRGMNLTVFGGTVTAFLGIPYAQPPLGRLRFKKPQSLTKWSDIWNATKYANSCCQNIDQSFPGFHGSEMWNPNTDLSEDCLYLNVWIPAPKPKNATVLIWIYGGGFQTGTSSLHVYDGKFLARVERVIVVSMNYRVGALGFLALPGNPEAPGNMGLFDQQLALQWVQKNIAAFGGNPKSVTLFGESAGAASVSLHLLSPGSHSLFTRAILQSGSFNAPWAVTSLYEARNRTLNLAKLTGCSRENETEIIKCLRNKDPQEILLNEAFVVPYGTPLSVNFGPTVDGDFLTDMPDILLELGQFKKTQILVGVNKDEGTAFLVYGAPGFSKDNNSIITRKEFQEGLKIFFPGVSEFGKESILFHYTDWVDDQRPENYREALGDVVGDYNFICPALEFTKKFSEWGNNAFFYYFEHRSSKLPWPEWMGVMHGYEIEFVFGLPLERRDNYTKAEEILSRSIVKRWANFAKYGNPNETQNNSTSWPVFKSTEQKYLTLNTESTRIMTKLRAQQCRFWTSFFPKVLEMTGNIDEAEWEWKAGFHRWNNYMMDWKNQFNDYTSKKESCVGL

| SMILES | IC50 [1] [nM] | IC50 [2] [nM] | other results |
| --- | --- | --- | --- |
| CCCCCCCNC(=O)Oc1ccc2c(c1)[C@]1(C)CCS[C@@H]1N2C [Ex. 2, (-)-3,3a,8,8a-tetrahydro-3a,8-dimethyl-2H-thieno[2,3-b]indole-5-ol heptylcarbamate] | 25.7 ± 2.8 | 6.8 ± 1.3 |  |
| CNC(=O)Oc1ccc2c(c1)[C@]1(C)CCN(C)[C@@H]1N2C [(-)-physostigmine] |  |  | duration of action of AChE inhibition ([3]; rat, in vivo, iv): duration of action is short; in vivo inhibition of AChE ([3]; rat, in vivo, iv): good inhibition properties; inhibition of AChE and BChE in vitro, comparison [4]: similarly at similar concentrations; inhibition of cholinesterases in vitro and in vivo [4]: potent inhibitors of cholinesterases in vitro and in vivo; properties at the neuromuscular AChR [5]: blocking properties as well as agonist properties; inhibition of AChE and BChE in vitro, comparison [6]: similarly at similar concentrations |
| CNC(=O)Oc1ccc2c(c1)[C@]1(C)CCN[C@@H]1N2C [(-)-N(1)-Norphysostigmine] |  |  | inhibition of AChE and BChE in vitro, comparison [4, 7]: similarly at similar concentrations; inhibition of AChE and BChE in vitro, comparison [6, 8]: similarly at similar concentrations |
| CNC(=O)Oc1ccc2c(c1)[C@@]1(C)CCN(C)[C@H]1N2C [(+)-physostigmine] |  |  | inhibition of cholinesterase (ChE) [4]: only negligible inhibition; also recorded: only negligible ChE inhibitory activity |
| CCc1ccccc1NC(=O)Oc1ccc2c(c1)[C@]1(C)CCS[C@@H]1N2C [Ex. 5, (-)-3,3a,8,8a-tetrahydro-3a,8-dimethyl-2H-thieno[2,3-b]indole-5-ol 2'-ethylphenylcarbamate] | 30.1 ± 0.2 | 3430 ± 259 |  |
| Cc1ccc(NC(=O)Oc2ccc3c(c2)[C@]2(C)CCS[C@@H]2N3C)c(C)c1 [Ex. 8, (-) -3,3a,8,8a-tetrahydro-3a,8-dimethyl-2H-thieno[2,3-b]indole-5-ol 2',4'-dimethylphenylcarbamate] | 26.3 ± 3.8 | 1870 ± 291 |  |
| CNC(=O)Oc1ccc2c(c1)[C@]1(C)CCO[C@@H]1N2C [(-)-physovenine] |  | 2.7 ± 1.4 | inhibition of AChE and BChE in vitro, comparison [4, 7]: similarly at similar concentrations; inhibition of cholinesterases in vitro and in vivo ([4]; prior art): potent inhibitors of cholinesterases in vitro and in vivo; inhibition of AChE and BChE in vitro, comparison [6, 8]: similarly at similar concentrations |
| CC(C)c1ccccc1NC(=O)Oc1ccc2c(c1)[C@]1(C)CCS[C@@H]1N2C [Ex. 6, (-)-3,3a,8,8a-tetrahydro-3a,8-dimethy-2H-thieno[2,3-b]indole-5-ol 2'-isopropylphenylcarbamate] | 25.5 ± 3.3 | 963 ± 106 |  |
| Cc1ccccc1NC(=O)Oc1ccc2c(c1)[C@]1(C)CCS[C@@H]1N2C [Ex. 4, (-)-3,3a,8,8a-tetrahydro-3a,8-dimethyl;-2H-thieno[2,3-b]indole-5-ol 2'-methylphenylcarbamate] | 29 ± 5.6 | 5280 ± 354 |  |
| CN(C)C(=O)Oc1ccc2c(c1)[C@]1(C)CCS[C@@H]1N2C [Ex. 9, (-)-3,3a,8,8a-tetrahydro-3a,8-dimethyl-2H-thieno[2,3-b]indole-5-ol N,N-dimethylcarbamate] | 197 ± 34.1 | 22.5 ± 0.1 | inhibiting properties and persistence [3]: longlasting inhibiting properties |
| CN1c2ccc(OC(=O)Nc3ccccc3)cc2[C@]2(C)CCS[C@H]12 [Ex. 3, (-)-3,3a,8,8a-tetrahydro-3a,8-dimethyl-2H-thieno[2,3-b]indole-5-ol phenylcarbamate] | 27.2 ± 7.1 | 1660 ± 354 |  |
| CNC(=O)Oc1ccc2c(c1)[C@]1(C)CCS[C@@H]1N2C [(-)-thiaphysovenine] |  |  | inhibiting properties and persistence [3]: good inhibition properties but does not persist; duration of action / persistence of AChE inhibition ([3]; rat plasma, i.v., 5 mg/kg, 480 minute period, FIG. 2): short duration of action; duration of action of AChE inhibition ([3]; rat plasma, i.v., FIG. 1): duration of action is short; in vivo inhibition of AChE ([3]; rat plasma, i.v., FIG. 1): good inhibition properties |
| CC(C)c1ccc(NC(=O)Oc2ccc3c(c2)[C@]2(C)CCS[C@@H]2N3C)cc1 [Ex. 7, (-)-3,3a,8,8a-tetrahydro-3a,8-dimethyl-2H-thieno[2,3-b]indole-5-ol 4'-isopropylphenylcarbamate] | > 10000 | 45.3 ± 12.4 |  |
| CCCCNC(=O)Oc1ccc2c(c1)[C@]1(C)CCS[C@@H]1N2C [Ex. 1, (-)-3,3a, 8,8a-tetrahydro-3a, 8-dimethyl-2H-thieno-[2,3-b]indole-5-ol butyl carbamate] | 13.5 ± 1.5 | 0.7 ± 0.1 |  |
